Data on 21 compounds can be found in US20230117034A1, “PYRAZOLOTRIAZINES” (Bayer Aktiengesellschaft, priority 2019, published 2023).

Structures are written as SMILES.

One assay concerns the target T1, CDK2/CycE (Homo sapiens, UniProt P24941).
T1 construct: purchased ProQinase GmbH (Freiburg, Germany); host or cells: insect cells (Sf9)
The assay is described as follows: CDK2/CycE kinase assay (TR-FRET, 2 mM ATP). In kind it is biochemical. The conditions noted are these: 2 mM ATP (high ATP); median; read-out: CDK2/CyclinE, 2 mM ATP (high ATP), IC50 (median). In outline:
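Biotin-peptide phosphorylation (0.75 µM substrate, 2 mM ATP final, 25 min, 22 °C) by Sf9-expressed GST-CDK2/GST-CycE, after a 15-min compound pre-binding step. Inhibition scaled between enzyme-free (100%) and uninhibited (0%) wells.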
(In general: In TR-FRET formats the signal depends on donor and acceptor labels being close together.)

The next assay deals with T2, CDK9/CycT1 (Homo sapiens, UniProt P50750).
T2 construct: Recombinant full-length His-tagged human CDK9 and CycT1; purchased Life Technologies PV4131; host or cells: insect cells
Description: CDK9/CycT1 high ATP kinase assay (TR-FRET, 2 mM ATP). To be noted: 2 mM ATP (high ATP); median; read-out: CDK9/CyclinT1, 2 mM ATP (high ATP), IC50 (median). In kind it is biochemical. Summed up:
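Full-length His-tagged human CDK9/CycT1 (insect cell, ~0.5 μg/mL) preincubated 15 min at 22 °C with compound in Tris pH 8.0, MgCl2, DTT buffer before reaction with biotinylated peptide substrate at high ATP (2 mM).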

T2 sequence (P50750 whole entry): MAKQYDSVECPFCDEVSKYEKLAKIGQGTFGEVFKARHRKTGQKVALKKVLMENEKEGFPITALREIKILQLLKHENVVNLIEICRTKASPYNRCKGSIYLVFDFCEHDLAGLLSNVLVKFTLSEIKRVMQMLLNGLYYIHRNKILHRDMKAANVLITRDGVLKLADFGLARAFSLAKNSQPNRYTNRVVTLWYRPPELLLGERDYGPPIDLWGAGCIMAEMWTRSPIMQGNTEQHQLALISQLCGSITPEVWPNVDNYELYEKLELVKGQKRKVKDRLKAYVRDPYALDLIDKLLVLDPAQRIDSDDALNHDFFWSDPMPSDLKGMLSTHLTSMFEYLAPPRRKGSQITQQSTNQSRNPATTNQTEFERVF
T2 sequence (O60563 whole entry partner): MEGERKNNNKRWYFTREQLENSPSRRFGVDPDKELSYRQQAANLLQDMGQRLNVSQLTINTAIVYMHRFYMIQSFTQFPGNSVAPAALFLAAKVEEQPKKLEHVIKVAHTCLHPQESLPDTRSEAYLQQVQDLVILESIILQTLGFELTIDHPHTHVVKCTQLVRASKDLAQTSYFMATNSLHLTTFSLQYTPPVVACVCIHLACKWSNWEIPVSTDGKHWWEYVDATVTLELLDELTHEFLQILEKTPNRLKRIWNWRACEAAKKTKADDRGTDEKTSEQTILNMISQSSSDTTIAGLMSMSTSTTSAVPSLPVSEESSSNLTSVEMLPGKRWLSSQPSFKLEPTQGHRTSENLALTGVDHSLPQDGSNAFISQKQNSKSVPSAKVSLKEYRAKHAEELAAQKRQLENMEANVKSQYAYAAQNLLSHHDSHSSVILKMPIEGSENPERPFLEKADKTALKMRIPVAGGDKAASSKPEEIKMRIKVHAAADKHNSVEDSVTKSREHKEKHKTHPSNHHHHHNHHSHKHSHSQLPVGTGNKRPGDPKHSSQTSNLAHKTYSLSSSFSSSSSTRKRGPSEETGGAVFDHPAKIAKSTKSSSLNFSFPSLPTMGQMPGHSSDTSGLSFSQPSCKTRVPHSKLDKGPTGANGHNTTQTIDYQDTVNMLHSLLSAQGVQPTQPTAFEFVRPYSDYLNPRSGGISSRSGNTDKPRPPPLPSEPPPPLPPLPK

`CN1CCN(c2nc(NCc3nc4cc(Cl)c(Cl)cc4[nH]3)n3ncc(C4CC4)c3n2)CC1` [Example 305, 8-cyclopropyl-N-[(5,6-dichloro-1H-benzimidazol-2-yl)methyl]-2-(4-methylpiperazin-1-yl)pyrazolo[1,5-a][1,3,5]triazin-4-amine]: the IC50 on CDK2/CycE and on CDK9/CycT1 was over 20 µM throughout.
Consider `CC(C)c1cnn2c(NCc3nc4ccccc4[nH]3)nc(N(C)C)nc12` [Example 3, N^4-[(1H-benzimidazol-2-yl)methyl]-N^2,N^2-dimethyl-8-(propan-2-yl)pyrazolo[1,5-a][1,3,5]triazine-2,4-diamine], for which the IC50 at CDK2/CycE and on CDK9/CycT1 was over 20 µM in each case.
For the compound `CCc1cnn2c(NCc3nc4c(F)c(F)ccc4[nH]3)nc(N3CCN(C)CC3)nc12.O=CO` [Example 435, formic acid N-[(4,5-difluoro-1H-benzimidazol-2-yl)methyl]-8-ethyl-2-(4-methylpiperazin-1-yl)pyrazolo[1,5-a][1,3,5]triazin-4-amine], the figures for the IC50 at CDK2/CycE and on CDK9/CycT1 were 5 µM and over 20 µM, respectively.
For `Fc1cccc(-c2cnc(CNc3nc(N4CCOCC4)nc4c(Br)cnn34)[nH]2)c1` [Example 79, 8-bromo-N-{[5-(3-fluorophenyl)-1H-imidazol-2-yl]methyl}-2-(morpholin-4-yl)pyrazolo[1,5-a][1,3,5]triazin-4-amine], in that order: 2.3 µM and 2.53 µM.
Turning to `Fc1cccc(-c2cnn3c(NCc4nc5ccccc5[nH]4)nc(N4CCOCC4)nc23)c1` [Example 91, N-[(1H-benzimidazol-2-yl)methyl]-8-(3-fluorophenyl)-2-(morpholin-4-yl)pyrazolo[1,5-a][1,3,5]triazin-4-amine], the IC50 at CDK2/CycE and at CDK9/CycT1 was over 20 µM each time.
Regarding `OCC1COCCN1c1nc(NCc2nc3ccccc3[nH]2)n2ncc(Br)c2n1` (stereo not drawn) [Example 67, (4-{4-[(1H-benzimidazol-2-ylmethyl)amino]-8-bromopyrazolo[1,5-a][1,3,5]triazin-2-yl}morpholin-3-yl)methanol], the IC50 on CDK2/CycE was 1.86 µM; at CDK9/CycT1 it was over 19.4 µM.
With `FC(F)(F)c1ccccc1-c1cnc(CNc2nc(N3CCOCC3)nc3c(Br)cnn23)[nH]1` [Example 88, 8-bromo-2-(morpholin-4-yl)-N-({5-[2-(trifluoromethyl)phenyl]-1H-imidazol-2-yl}methyl)pyrazolo[1,5-a][1,3,5]triazin-4-amine], the IC50 at CDK2/CycE is 8.55 µM; on CDK9/CycT1 it was 6.42 µM.
Turning to `COC(=O)C1CCN(c2nc(NCc3nc4ccccc4[nH]3)n3ncc(Br)c3n2)CC1` [Example 63, methyl 1-(4-{[(1H-benzimidazol-2-yl)methyl]amino}-8-bromopyrazolo[1,5-a][1,3,5]triazin-2-yl)piperidine-4-carboxylate], the IC50 on CDK2/CycE is 6.49 µM; at CDK9/CycT1, over 20 µM.
For `Fc1ccc2[nH]c(CNc3nc(N4CCOCC4)nc4c(-c5cnn(C(F)F)c5)cnn34)nc2c1F` [Example 422, N-[(4,5-difluoro-1H-benzimidazol-2-yl)methyl]-8-[1-(difluoromethyl)-1H-pyrazol-4-yl]-2-(morpholin-4-yl)pyrazolo[1,5-a][1,3,5]triazin-4-amine], in that order: over 20 µM and over 20 µM.
As to `OC[C@H]1CCCCN1c1nc(NCc2nnc(-c3ccccc3)[nH]2)n2ncc(Br)c2n1` [Example 71, [(2R)-1-(8-bromo-4-{[(5-phenyl-4H-1,2,4-triazol-3-yl)methyl]amino}pyrazolo[1,5-a][1,3,5]triazin-2-yl)piperidin-2-yl]methanol], the IC50 on CDK2/CycE turned out to be 2.23 µM; at CDK9/CycT1, 1.76 µM.
In the case of `c1ccc2[nH]c(CNc3nc(N4CCOCC4)nc4c(C5CC5)cnn34)nc2c1` [Example 92, N-[(1H-benzimidazol-2-yl)methyl]-8-cyclopropyl-2-(morpholin-4-yl)pyrazolo[1,5-a][1,3,5]triazin-4-amine], the values for the IC50 on CDK2/CycE and at CDK9/CycT1 were 15.6 µM and over 20 µM, respectively.
In the case of `Fc1ccccc1-c1cnc(CNc2nc(N3CCOCC3)nc3c(Br)cnn23)[nH]1` [Example 86, 8-bromo-N-{[5-(2-fluorophenyl)-1H-imidazol-2-yl]methyl}-2-(morpholin-4-yl)pyrazolo[1,5-a][1,3,5]triazin-4-amine], the IC50 was 1.95 µM at CDK2/CycE and 5.27 µM at CDK9/CycT1.
Turning to `CC(C)c1cnn2c(NCc3nc4ccccc4[nH]3)nc(N3CCN(C)CC3)nc12` [Example 2, N-[(1H-benzimidazol-2-yl)methyl]-2-(4-methylpiperazin-1-yl)-8-(propan-2-yl)pyrazolo[1,5-a][1,3,5]triazin-4-amine], the values for the IC50 on CDK2/CycE and on CDK9/CycT1 were 11.1 µM and over 20 µM, respectively.
`CC(C)c1cnn2c(NCc3nc4ccccc4[nH]3)nc(N3CCOC(C)(C)C3)nc12` [Example 12, N-[(1H-benzimidazol-2-yl)methyl]-2-(2,2-dimethylmorpholin-4-yl)-8-(propan-2-yl)pyrazolo[1,5-a][1,3,5]triazin-4-amine]: the IC50 was over 16.5 µM at CDK2/CycE and over 20 µM on CDK9/CycT1.
For the compound `COC1CCN(c2nc(NCc3nc4ccccc4[nH]3)n3ncc(Br)c3n2)CC1` [Example 62, N-[(1H-benzimidazol-2-yl)methyl]-8-bromo-2-(4-methoxypiperidin-1-yl)pyrazolo[1,5-a][1,3,5]triazin-4-amine], the values for the IC50 at CDK2/CycE and on CDK9/CycT1 were 6.45 µM and over 20 µM, respectively.
In the same order, the values of `Brc1cnn2c(NCc3ncc(-c4ccccn4)[nH]3)nc(N3CCOCC3)nc12` [Example 90, 8-bromo-2-(morpholin-4-yl)-N-{[5-(pyridin-2-yl)-1H-imidazol-2-yl]methyl}pyrazolo[1,5-a][1,3,5]triazin-4-amine] are 1.79 µM and 9.35 µM.
With `O[C@@H]1CCN(c2nc(NCc3nc4ccccc4[nH]3)n3ncc(Br)c3n2)C1` [Example 202, (3R)-1-(4-{[(1H-benzimidazol-2-yl)methyl]amino}-8-bromopyrazolo[1,5-a][1,3,5]triazin-2-yl)pyrrolidin-3-ol], the IC50 at CDK2/CycE was 10.5 µM; on CDK9/CycT1, over 20 µM.
For `OC[C@@H]1CCCCN1c1nc(NCc2nnc(-c3ccccc3)[nH]2)n2ncc(Br)c2n1` [Example 70, [(2S)-1-(8-bromo-4-{[(5-phenyl-4H-1,2,4-triazol-3-yl)methyl]amino}pyrazolo[1,5-a][1,3,5]triazin-2-yl)piperidin-2-yl]methanol], in that order: 1.54 µM and 0.569 µM.
In the same order, the values of `COc1ccccc1-c1cnc(CNc2nc(N3CCOCC3)nc3c(Br)cnn23)[nH]1` [Example 87, 8-bromo-N-{[5-(2-methoxyphenyl)-1H-imidazol-2-yl]methyl}-2-(morpholin-4-yl)pyrazolo[1,5-a][1,3,5]triazin-4-amine] are 2.55 µM and 5.13 µM.
With `FC(F)(F)Oc1ccccc1-c1nnc(CNc2nc(N3CCOCC3)nc3c(Br)cnn23)[nH]1` [Example 74, 8-bromo-2-(morpholin-4-yl)-N-({5-[2-(trifluoromethoxy)phenyl]-4H-1,2,4-triazol-3-yl}methyl)pyrazolo[1,5-a][1,3,5]triazin-4-amine], the IC50 is 18.2 µM at CDK2/CycE and over 20 µM on CDK9/CycT1.
In the same order, the values of `COC1CCN(c2nc(NCc3nnc(-c4ccccc4)[nH]3)n3ncc(Br)c3n2)CC1` [Example 76, 8-bromo-2-(4-methoxypiperidin-1-yl)-N-[(5-phenyl-4H-1,2,4-triazol-3-yl)methyl]pyrazolo[1,5-a][1,3,5]triazin-4-amine] are 8.34 µM and 7.85 µM.
